Measurements taken from paper PMC3293179 (MedChemComm, 2011).

Columns and labels:
TSHR [1] = biological target: T1, TSHR (Homo sapiens, UniProt P16473); experiment: ELISA cAMP assay in HEK-EM293 cells expressing TSHR; type: cell-based; conditions: for fold more potent than the hit compound 1a: potency ratio versus 1a
FSHR = biological target: T2, FSHR (Homo sapiens, UniProt P23945); experiment: Selectivity test against FSHR; type: cell-based
T2 sequence (P23945 18-695): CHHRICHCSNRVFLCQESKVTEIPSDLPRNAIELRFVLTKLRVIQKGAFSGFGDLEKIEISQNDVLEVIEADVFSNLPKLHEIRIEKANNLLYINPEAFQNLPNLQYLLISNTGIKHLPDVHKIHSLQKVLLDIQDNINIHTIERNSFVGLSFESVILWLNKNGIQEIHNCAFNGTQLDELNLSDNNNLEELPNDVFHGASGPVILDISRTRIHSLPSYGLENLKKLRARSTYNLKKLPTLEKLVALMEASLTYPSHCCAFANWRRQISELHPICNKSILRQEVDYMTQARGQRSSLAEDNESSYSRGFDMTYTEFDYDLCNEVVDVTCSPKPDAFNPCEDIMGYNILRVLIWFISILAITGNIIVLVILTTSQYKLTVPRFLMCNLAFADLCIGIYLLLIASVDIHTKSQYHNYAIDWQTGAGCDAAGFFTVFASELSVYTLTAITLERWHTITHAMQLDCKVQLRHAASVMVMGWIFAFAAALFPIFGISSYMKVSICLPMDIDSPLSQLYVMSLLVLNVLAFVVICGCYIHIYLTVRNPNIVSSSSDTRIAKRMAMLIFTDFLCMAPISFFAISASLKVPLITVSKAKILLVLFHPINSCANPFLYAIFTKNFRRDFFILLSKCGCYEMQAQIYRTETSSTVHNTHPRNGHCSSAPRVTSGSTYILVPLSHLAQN

LHR = LHR (Homo sapiens, UniProt P22888); experiment: Selectivity test against LHR; type: cell-based
Sequence of LHR (P22888 27-699): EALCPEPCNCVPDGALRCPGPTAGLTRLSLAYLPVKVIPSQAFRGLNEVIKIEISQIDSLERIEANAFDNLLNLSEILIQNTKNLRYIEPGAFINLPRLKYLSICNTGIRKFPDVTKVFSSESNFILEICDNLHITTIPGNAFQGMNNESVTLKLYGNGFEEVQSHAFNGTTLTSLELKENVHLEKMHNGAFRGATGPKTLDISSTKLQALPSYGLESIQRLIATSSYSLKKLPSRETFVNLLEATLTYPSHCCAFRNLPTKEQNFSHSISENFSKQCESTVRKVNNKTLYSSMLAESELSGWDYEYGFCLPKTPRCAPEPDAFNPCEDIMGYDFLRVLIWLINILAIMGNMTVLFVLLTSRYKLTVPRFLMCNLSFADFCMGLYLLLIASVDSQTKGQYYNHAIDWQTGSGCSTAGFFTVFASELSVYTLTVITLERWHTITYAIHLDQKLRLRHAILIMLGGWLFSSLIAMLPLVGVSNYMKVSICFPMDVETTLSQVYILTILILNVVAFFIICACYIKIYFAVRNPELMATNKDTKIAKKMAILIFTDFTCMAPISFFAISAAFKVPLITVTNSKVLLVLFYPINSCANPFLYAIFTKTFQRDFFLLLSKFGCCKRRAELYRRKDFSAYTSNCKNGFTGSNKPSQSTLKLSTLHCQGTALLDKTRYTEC

TSHR [2] = biological target: T1, TSHR; conditions: cited from earlier work
TSHR [3] = conditions: mice; cited from earlier work
[4] = degradation at pH = 2; cited from earlier work

T1 sequence (P16473 21-764): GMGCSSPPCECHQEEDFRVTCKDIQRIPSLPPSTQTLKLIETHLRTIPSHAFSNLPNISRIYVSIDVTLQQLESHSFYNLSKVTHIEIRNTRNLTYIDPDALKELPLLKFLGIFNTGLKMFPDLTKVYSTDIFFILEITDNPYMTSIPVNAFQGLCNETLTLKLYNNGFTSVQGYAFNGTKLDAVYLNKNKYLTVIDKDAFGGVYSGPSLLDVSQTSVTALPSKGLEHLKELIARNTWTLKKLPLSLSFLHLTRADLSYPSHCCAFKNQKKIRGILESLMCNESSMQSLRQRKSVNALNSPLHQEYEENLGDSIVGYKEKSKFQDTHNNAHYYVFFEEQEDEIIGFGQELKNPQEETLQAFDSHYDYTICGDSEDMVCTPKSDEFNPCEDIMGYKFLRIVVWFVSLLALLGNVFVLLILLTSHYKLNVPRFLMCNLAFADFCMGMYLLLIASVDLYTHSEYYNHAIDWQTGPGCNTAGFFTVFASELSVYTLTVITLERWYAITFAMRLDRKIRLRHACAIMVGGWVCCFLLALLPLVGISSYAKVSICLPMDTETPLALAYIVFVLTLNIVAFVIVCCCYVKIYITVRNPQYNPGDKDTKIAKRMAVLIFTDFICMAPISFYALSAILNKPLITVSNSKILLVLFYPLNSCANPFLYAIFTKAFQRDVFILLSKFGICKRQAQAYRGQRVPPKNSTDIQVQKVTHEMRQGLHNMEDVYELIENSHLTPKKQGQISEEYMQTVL

COc1ccc(C2Nc3ccccc3C(=O)N2CCc2ccccc2)cc1COc1ccc(NC(C)=O)cc1 (stereo not shown) [Compound 1m]
fold reduction in potency (TSHR [1]; versus benzyl analogue 1g): 2 fold

COc1ccc(C2Nc3ccccc3C(=O)N2Cc2ccco2)cc1COc1ccc(NC(C)=O)cc1 (stereo not shown) [Compound 1a]
FSHR efficacy (FSHR): no detectable
LHR efficacy (LHR): no detectable

COc1ccc(-c2nc3cccc(O)c3c(=O)n2Cc2ccccc2)cc1COc1ccc(NC(C)=O)cc1 [Compound 9c]
selectivity for TSHR over FSHR (FSHR): selective for TSHR over LHR and FSHR
selectivity for TSHR over LHR (LHR): selective for TSHR over LHR and FSHR

COc1ccc(C2Nc3ccccc3C(=O)N2Cc2ccccc2)cc1CSc1ccc(NC(C)=O)cc1 (stereo not shown) [Compound 8a]
fold more potent than the hit compound 1a (TSHR [1]): at least 10 fold

COc1ccc(C2Nc3cccc(O)c3C(=O)N2Cc2ccccc2)cc1CSc1ccc(NC(C)=O)cc1 (stereo not shown) [Compound 8b]
fold increase in potency (TSHR [1]; Y oxygen replaced with sulfur (8b vs 1b, 8a vs 1g)): ≤ 5 fold
selectivity for TSHR over FSHR (FSHR): maintain selectivity for TSHR over LHR and FSHR
selectivity for TSHR over LHR (LHR): maintain selectivity for TSHR over LHR and FSHR

COc1ccc(C2Nc3ccccc3C(=O)N2Cc2ccccc2)cc1COc1ccc(NC(C)=O)cc1 (stereo not shown) [Compound 1g]
fold more potent than the hit compound 1a (TSHR [1]): 4 fold

COc1ccc(C2Nc3cccc(O)c3C(=O)N2Cc2ccccc2)cc1COc1ccc(NC(C)=O)cc1 (stereo not shown) [Compound 1b]
Emax (TSHR [1]; HEK-EM293): 100%
fold improvement in potency (TSHR [1]; R2 OH versus H (1g) or F (1e)): 3 fold
fold more potent than the hit compound 1a (TSHR [1]): at least 10 fold
TSHR agonism (type) (TSHR [2]): full TSHR agonist
in vivo efficacy (TSHR [3]): in vivo efficacy in mice
half-life [4]: 3 h
